Like-named read-outs stand apart in the source and are kept apart here.
Columns and labels:
[1] = test system: methicillin-resistant S. aureus (MRSA, ATCC 33591); experiment: Minimum inhibitory concentration (MIC) assay, MRSA; assay type: cell-based, Staphylococcus aureus; conditions: for MIC: Staphylococcus aureus
Description: (§1) Minimum inhibitory concentrations (MICs) assay.^2
(§2) All compounds were tested against six different bacteria strains: methicillin-resistant S. aureus (MRSA, ATCC 33591), E. coli (ATCC 25922), methicillin-resistant S. epidermidis (MRSE, RP62A), K. pneumoniae (ATCC 13383), vancomycin-resistant Enterococcus faecalis (VREF, ATCC 700802), P. aeruginosa (ATCC 27853). One colony of each bacteria was inoculated in 4 mL TSB buffer at 37° C. overnight, which was then diluted 100 times, and the bacteria were allowed to grow to the mid-logarithmic phase. 50 μL hydantoin compounds in 2-fold serial dilution of TSB were added in the 96-well plate, then 50 μL diluted bacterial in TSB medium (1×10^6 CFU/mL) was added to each well. After 16 h of incubation at 37° C., the absorption at 600 nm wavelength on a Biotek Synergy HT microtiter plate reader was recorded. Minimum inhibitory concentrations were determined as the lowest concentrations that inhibited bacteria growth completely.

[2] = test system: methicillin-resistant S. epidermidis (MRSE, RP62A); experiment: Minimum inhibitory concentration (MIC) assay, MRSE; assay type: cell-based, Staphylococcus epidermidis; conditions: Gram positive, 16 h incubation; for MIC: Staphylococcus epidermidis, MRSE, read-out: MIC (μg/mL) MRSE
Description: as §1, §2

[3] = test system: vancomycin-resistant Enterococcus faecalis (VREF, ATCC 700802); experiment: Minimum inhibitory concentration (MIC) assay, VREF; assay type: cell-based; conditions: 16 h incubation; for MIC: Enterococcus faecalis, ATCC700802, Gram positive, read-out: MIC (μg/mL) VREF; for MIC (μg/mL) VREF: Gram positive
Description: as §1, §2

E. coli (ATCC 25922) = experiment: Minimum inhibitory concentration (MIC) assay, E. coli; assay type: cell-based, Escherichia coli; conditions: 16 h incubation; for MIC: Escherichia coli, ATCC25922, Gram negative, read-out: MIC (μg/mL) E. coli; for MIC (μg/mL) E. coli: Gram negative
Description: as §1, §2

[4] = test system: P. aeruginosa (ATCC 27853); experiment: Minimum inhibitory concentration (MIC) assay, P. aeruginosa; assay type: cell-based, Pseudomonas aeruginosa; conditions: Gram negative, ATCC 27853, 16 h incubation; for MIC: Pseudomonas aeruginosa, ATCC27853, read-out: MIC (μg/mL) P.A.
Description: as §1, §2

[5] = test system: K. pneumoniae (ATCC 13383); experiment: Minimum inhibitory concentration (MIC) assay, K. pneumoniae; assay type: cell-based, Klebsiella pneumoniae; conditions: 16 h incubation; for MIC: Klebsiella pneumoniae, ATCC13383, Gram negative, read-out: MIC (μg/mL) K.P.; for MIC (μg/mL) K.P.: Gram negative
Description: as §1, §2

[6] = test system: red blood cells (RBCs) of mice; experiment: Hemolytic assay; assay type: cell-based
Description: Fresh red blood cells (RBCs) of mice were washed with 1×PBS buffer and centrifuged 10 min at 3500 rpm for 3 times until the supernatant was clear, then RBCs were diluted into 5% v/v suspension in 1×PBS. 50 μL compounds in PBS were 2-fold serially diluted in a 96-well plate, and incubated with 50 μL RBCs suspension for 1 h at 37° C. The mixture was then centrifuged for 10 min at 3500 rpm. Subsequently, 30 μL of the supernatant was added to 100 μL PBS, then the absorbance of mixture was read on a Biotek Synergy HT plate reader at 540 nm. The hemolytic activity was calculated by the formula % hemolysis=(Abssample−AbsPBS)/(AbsTriton−AbsPBS)×100%. 1% Triton X-100 were used as the positive control and 1×PBS buffer was used as the negative control.

[7] = test system: panel of Gram-positive and Gram-negative bacteria; experiment: Antimicrobial activity against the whole panel of bacteria; assay type: cell-based; conditions: for antimicrobial activity across the tested bacterial strains: all tested strains; for antibacterial activity of compounds with HPLC RT values less than 26 min: statement relating activity to retention time
Description: as §1, §2

[8] = test system: MRSA-induced lung inflammation; experiment: Rat model of MRSA-induced pneumonia, pathological analysis (H&E); assay type: in vivo; conditions: 10 mg/kg i.v.
Description: The rat model of MRSA-induced pneumonia.^4, 5
The protocol of animal studies was approved by the institutional committee for animal care of Nanjing University, and the experiments were conducted following the regulation of the National Ministry of Health of China. In Brief, male Wistar rats (6-8 weeks, ˜200 g in average weight) were subjected to fast for 12 h. Next, rats were anesthetized by intraperitoneal administration of 0.35 g/kg of chloral hydrate. To induce MRSA pneumonia, the trachea of rats were exposed, to which 100 μL PBS containing 2×10^6 CFU/mL MRSA in PBS was slowly injected. The rats were retained upright for 1 min, and the cut was sealed. The MRSA infection was allowed to develop for 24 h.
The hydantoin compound 22 or vancomycin were used as antibiotics in the study. In brief, a dose of 10 mg/kg of the drug was injected to the tested rats intravenously. On the day of 3 and 5, rats were sacrificed, and lung sections were stained with hematoxylin and eosin (H&E), and their morphology was investigated under a light microscope at 100× magnification. The existence (indicated by the infiltration of neutrophils) and the extent of possible inflammatory response (indicated by the integrity of the alveolar structure and endothelium cilium) were recorded from at least five randomly picked sections by an experienced physician.

[9] = Gram positive, ATCC 33591, 16 h incubation, read-out: MIC (μg/mL) MRSA
[10] = hemolytic activity, mouse RBCs, 1 h at 37° C.
[11] = Gram positive, ATCC 33591, 16 h incubation

Compound	MIC [1, 9] [µg/mL]	MIC [2] [µg/mL]	MIC [3] [µg/mL]	MIC (E. coli (ATCC 25922)) [µg/mL]	MIC (μg/mL) P.A. [4] [µg/mL]	MIC [4] [µg/mL]	MIC [5] [µg/mL]	HC50 [6, 10] [µg/mL]	antimicrobial activity across the tested bacterial strains [7]	antibacterial activity of compounds with HPLC RT values less than 26 min [7]	MIC (μg/mL) MRSA [1, 11] [µg/mL]	MIC of MRSA ([1]; Table 2) [µg/mL]	MIC (μg/mL) MRSE [2] [µg/mL]	MIC (μg/mL) VREF [3] [µg/mL]	MIC (μg/mL) E. coli (E. coli (ATCC 25922)) [µg/mL]	MIC (μg/mL) K.P. [5] [µg/mL]	HC50 [6] [µg/mL]	MIC ([1]; Table 2, read-out: MIC of MRSA) [µg/mL]	MIC ([7]; range over most strains of the panel, read-out: MICs against most of bacteria) [µg/mL]	lung inflammation (H&E staining), day not given [8]
CCCCCCCCCCCCCC(=O)N[C@@H](CCCCN)CN1CC(=O)N(CC)C1=O [Compound 3, (S)—N-(6-amino-1-(3-ethyl-2,4-dioxoimidazolidin-1-yl)hexan-2-yl)tetradecanamide]	6.25	6.25	6.25	3.12	12.5	12.5	6.25	90	comparable activity to nitrofurantoin against most strains											
CCCCCCCCCCCC(=O)N[C@@H](CCCCN)CN1CC(=O)N(CCCC)C1=O [Compound 6, (S)—N-(6-amino-1-(3-butyl-2,4-dioxoimidazolidin-1-yl)hexan-2-yl)dodecanamide]	12.5	25	25	6.25		25	12.5	80		no apparent antibacterial activity										
CCCCCCCCCC(=O)N[C@@H](CCCCN)CN1CC(=O)N(C2CCCCC2)C1=O [Compound 9, (S)—N-(6-amino-1-(3-cyclohexyl-2,4-dioxoimidazolidin-1-yl)hexan-2-yl)decanamide]	25	> 50	> 50	12.5		> 50	25		starts to show activity toward a few bacterial strains	no apparent antibacterial activity										
CCCCCCCCCCCC(=O)N[C@@H](CCCCN)CN1CC(=O)N(C2CCCCC2)C1=O [Compound 10, (S)—N-(6-amino-1-(3-cyclohexyl-2,4-dioxoimidazolidin-1-yl)hexan-2-yl)dodecanamide]	6.25	6.25	12.5	6.25		12.5	6.25	100												
CCCCCCCCCC(=O)N[C@@H](CCCCN)CN1CC(=O)N(C23CC4CC(CC(C4)C2)C3)C1=O [Compound 13, N—((S)-1-(3-((3R,5R,7R)-adamantan-1-yl)-2,4-dioxoimidazolidin-1-yl)-6-aminohexan-2-yl) decanamide]					12.5				exhibits decent activity across the panel of bacteria		6.25	6.25	6.25	12.5	6.25	6.25	125			
CCCCCCCCCC(=O)N[C@@H](CCCCN)CN1CC(=O)N(c2ccc(OC)cc2)C1=O [Compound 17, (S)—N-(6-amino-1-(3-(4-methoxyphenyl)-2,4-dioxoimidazolidin-1-yl)hexan-2-yl)decanamide]	> 50	> 50	> 50	> 50		> 50	> 50			no apparent antibacterial activity										
CCCCCCCCCCCC(=O)N[C@@H](CCCCN)CN1CC(=O)N(c2ccc(OC)cc2)C1=O [Compound 18, (S)—N-(6-amino-1-(3-(4-methoxyphenyl)-2,4-dioxoimidazolidin-1-yl)hexan-2-yl)dodecan amide]					12.5					no apparent antibacterial activity	25	25	25	25	12.5	12.5	200			
CCCCCCCCCC(=O)N[C@@H](CCCCN)CN1CC(=O)N(c2cccc(Cl)c2)C1=O [Compound 21, (S)—N-(6-amino-1-(3-(3-chlorophenyl)-2,4-dioxoimidazolidin-1-yl)hexan-2-yl)decanamide]		6.25	12.5	6.25		6.25	6.25	100										6.25		
CCCCCCCCCCCC(=O)N[C@@H](Cc1ccccc1)CN1CC(=O)N(c2cccc(Cl)c2)C1=O [Compound 25, (S)—N-(1-(3-(3-chlorophenyl)-2,4-dioxoimidazolidin-1-yl)-3-phenylpropan-2-yl)dodecanamide]	> 50	> 50	> 50	> 50		> 50	> 50		fails to show any antimicrobial activity	no apparent antibacterial activity										
O=C1CN(/N=C/c2ccc([N+](=O)[O-])o2)C(=O)N1 [Compound 26, nitrofurantoin, reference compound]	12.5	6.25	12.5	6.25		> 50	25												6.25 to 25	
CN[C@H](CC(C)C)C(=O)N[C@H]1C(=O)N[C@@H](CC(N)=O)C(=O)N[C@H]2C(=O)N[C@H]3C(=O)N[C@H](C(=O)N[C@H](C(=O)O)c4cc(O)cc(O)c4-c4cc3ccc4O)[C@H](O)c3ccc(c(Cl)c3)Oc3cc2cc(c3O[C@@H]2O[C@H](CO)[C@@H](O)[C@H](O)[C@H]2O[C@H]2C[C@](C)(N)[C@H](O)[C@H](C)O2)Oc2ccc(cc2Cl)[C@H]1O [vancomycin, reference compound]																				alleviated condition

Source: patent US10793526B2, “Hydantoin derivative compounds, methods of use and methods of treatment” (University of South Florida, priority 2016, dated 2020)
